{"source": "patent US10618901B2", "about": "(GlaxoSmithKline Intellectual Property Development Limited, priority 2014, dated 2020)", "target": "T1, LRRK2 Ser935 phosphorylation in SH-SY5Y cells over-expressing recombinant full length LRRK2 (Homo sapiens, UniProt Q5S007)", "T1 construct": "A BacMam virus expressing full length recombinant LRRK2 was purchased from Invitrogen; host or cells: SH-SY5Y (BacMam transduction)", "T1 sequence (Q5S007 whole entry)": "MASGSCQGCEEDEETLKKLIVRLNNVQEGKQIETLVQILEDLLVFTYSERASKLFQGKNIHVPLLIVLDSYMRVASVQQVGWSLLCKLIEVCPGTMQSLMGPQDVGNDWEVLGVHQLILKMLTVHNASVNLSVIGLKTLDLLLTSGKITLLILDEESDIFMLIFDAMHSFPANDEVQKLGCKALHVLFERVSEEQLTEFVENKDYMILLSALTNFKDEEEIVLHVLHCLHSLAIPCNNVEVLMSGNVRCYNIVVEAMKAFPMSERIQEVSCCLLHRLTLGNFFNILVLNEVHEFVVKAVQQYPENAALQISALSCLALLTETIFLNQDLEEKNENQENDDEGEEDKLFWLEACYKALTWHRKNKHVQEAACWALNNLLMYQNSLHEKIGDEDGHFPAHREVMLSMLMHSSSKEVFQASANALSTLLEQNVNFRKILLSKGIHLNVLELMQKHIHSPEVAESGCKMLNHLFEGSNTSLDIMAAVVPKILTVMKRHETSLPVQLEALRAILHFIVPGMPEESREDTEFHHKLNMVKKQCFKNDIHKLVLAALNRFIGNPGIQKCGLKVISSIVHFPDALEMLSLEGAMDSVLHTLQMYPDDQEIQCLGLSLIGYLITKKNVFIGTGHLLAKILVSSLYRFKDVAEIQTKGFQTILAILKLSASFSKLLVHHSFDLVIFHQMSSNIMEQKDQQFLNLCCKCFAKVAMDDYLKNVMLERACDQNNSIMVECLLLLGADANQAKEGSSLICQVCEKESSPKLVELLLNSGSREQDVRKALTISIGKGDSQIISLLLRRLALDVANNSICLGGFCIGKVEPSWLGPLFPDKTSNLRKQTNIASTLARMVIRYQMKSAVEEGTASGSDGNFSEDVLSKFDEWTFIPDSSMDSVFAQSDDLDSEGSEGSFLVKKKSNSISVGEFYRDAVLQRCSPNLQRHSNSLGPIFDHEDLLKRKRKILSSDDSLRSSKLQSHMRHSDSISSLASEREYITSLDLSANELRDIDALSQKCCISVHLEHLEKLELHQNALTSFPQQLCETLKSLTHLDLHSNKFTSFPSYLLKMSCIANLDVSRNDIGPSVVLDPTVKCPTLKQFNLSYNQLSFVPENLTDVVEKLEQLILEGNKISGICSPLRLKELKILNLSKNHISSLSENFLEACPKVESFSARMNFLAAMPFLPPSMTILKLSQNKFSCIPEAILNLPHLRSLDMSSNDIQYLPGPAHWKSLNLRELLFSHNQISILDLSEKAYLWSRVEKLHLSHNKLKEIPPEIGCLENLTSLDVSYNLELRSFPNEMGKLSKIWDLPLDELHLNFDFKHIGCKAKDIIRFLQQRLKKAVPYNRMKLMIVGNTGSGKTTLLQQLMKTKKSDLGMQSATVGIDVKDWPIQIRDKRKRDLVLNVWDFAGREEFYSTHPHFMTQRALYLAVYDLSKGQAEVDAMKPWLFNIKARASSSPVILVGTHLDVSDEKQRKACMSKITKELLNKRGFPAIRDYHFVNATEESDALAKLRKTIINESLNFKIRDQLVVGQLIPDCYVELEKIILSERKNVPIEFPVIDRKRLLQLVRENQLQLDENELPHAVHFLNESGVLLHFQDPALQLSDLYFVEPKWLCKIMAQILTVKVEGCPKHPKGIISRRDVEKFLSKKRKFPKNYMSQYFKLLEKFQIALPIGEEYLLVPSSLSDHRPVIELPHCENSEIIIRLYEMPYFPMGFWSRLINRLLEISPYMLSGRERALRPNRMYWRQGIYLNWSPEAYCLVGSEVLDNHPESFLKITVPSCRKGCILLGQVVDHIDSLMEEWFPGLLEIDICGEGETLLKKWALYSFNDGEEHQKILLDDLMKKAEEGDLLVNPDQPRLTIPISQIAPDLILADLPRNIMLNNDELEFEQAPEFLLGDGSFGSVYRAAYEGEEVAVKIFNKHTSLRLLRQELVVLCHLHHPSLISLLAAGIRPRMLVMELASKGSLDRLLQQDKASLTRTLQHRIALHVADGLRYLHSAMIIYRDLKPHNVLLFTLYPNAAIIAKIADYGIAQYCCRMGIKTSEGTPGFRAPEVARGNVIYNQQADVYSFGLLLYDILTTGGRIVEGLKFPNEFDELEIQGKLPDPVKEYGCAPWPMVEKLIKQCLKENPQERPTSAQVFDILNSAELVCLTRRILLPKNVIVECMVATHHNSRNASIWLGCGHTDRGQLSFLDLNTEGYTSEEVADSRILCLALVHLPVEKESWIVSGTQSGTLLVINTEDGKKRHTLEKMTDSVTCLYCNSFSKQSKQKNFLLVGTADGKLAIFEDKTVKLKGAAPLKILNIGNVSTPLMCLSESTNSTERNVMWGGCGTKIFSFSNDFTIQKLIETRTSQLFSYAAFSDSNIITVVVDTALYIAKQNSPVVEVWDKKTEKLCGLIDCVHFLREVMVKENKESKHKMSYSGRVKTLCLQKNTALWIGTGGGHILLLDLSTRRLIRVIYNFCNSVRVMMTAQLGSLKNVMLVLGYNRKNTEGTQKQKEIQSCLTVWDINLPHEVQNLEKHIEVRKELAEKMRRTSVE", "assay": "Recombinant cellular LRRK2 AlphaScreen assay", "type": "cell-based", "outline": "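SH-SY5Y cells transduced with BacMam full-length LRRK2 (MOI 50, 24 h) were treated with compound, top final 10 uM, for 60 min at 37° C. Lysates were assayed by AlphaScreen for pSer935 and total LRRK2. Dose-response fitted to a sigmoidal model.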", "key": {"[1]": {"details": "read-out: pIC50 in the recombinant cellular LRRK2 alphaScreen assay (converted)"}, "[2]": {"details": "LRRK2 Ser935 phosphorylation, 60 minutes, read-out: recombinant cellcular LRRK2 alphaScreen assay (pIC50) (converted)"}, "[3]": {"details": "LRRK2 Ser935 phosphorylation, 60 minutes"}}, "note": "Read-outs that look alike come from different tables or passages of the source."}
{"molecule": "CCOc1nc(Nc2cnn(C3CCCC3(C)O)c2C)nc2[nH]ccc12", "note": "(racemic) [Example E70, Trans-2-(4-((4-ethoxy-7H-pyrrolo-[2,3-d]pyrimidin-2-yl)amino)-5-methyl-1H-pyrazol-1-yl)-1-methylcyclopentanol]", "values": [{"measurement": "IC50", "setting": "[1]", "result": "≤ 100", "unit": "nM"}]}
{"molecule": "CCOc1nc(Nc2cnn(C3CCN(C)C3)c2C)nc2[nH]ccc12", "note": "(single isomer, unassigned) [Example E14, 4-ethoxy-N-(5-methyl-1-(1-methylpyrrolidin-3-yl)-1H-pyrazol-4-yl)-7H-pyrrolo-[2,3-d]-pyrimidin-2-amine]", "values": [{"measurement": "IC50", "setting": "[2]", "result": 63.1, "unit": "nM"}, {"measurement": "IC50", "setting": "[1]", "result": "≤ 100", "unit": "nM"}]}
{"molecule": "CCOc1nc(Nc2cnn(C3CCN(C4COC4)C3)c2C)nc2[nH]ccc12", "note": "(single isomer, unassigned) [Example E67, 4-ethoxy-N-(5-methyl-1-(1-(oxetan-3-yl)-pyrrolidin-3-yl)-1H-pyrazol-4-yl)-7H-pyrrolo-[2,3-d]pyrimidin-2-amine]", "values": [{"measurement": "IC50", "setting": "[1]", "result": "≤ 100", "unit": "nM"}]}
{"molecule": "CCOc1nc(Nc2cnn([C@H]3CCN(C4COC4)C[C@@H]3F)c2Cl)nc2[nH]ccc12", "note": "(single isomer, unassigned) [Example E104]", "values": [{"measurement": "IC50", "setting": "[2]", "result": 31.6, "unit": "nM"}, {"measurement": "IC50", "setting": "[1]", "result": "≤ 100", "unit": "nM"}]}
{"molecule": "CCOc1nc(Nc2cnn([C@@H]3CCN(C4COC4)C[C@H]3F)c2Cl)nc2[nH]ccc12", "note": "(single isomer, unassigned) [Example E105]", "values": [{"measurement": "IC50", "setting": "[2]", "result": 25.1, "unit": "nM"}, {"measurement": "IC50", "setting": "[1]", "result": "≤ 100", "unit": "nM"}]}
{"molecule": "CCOc1nc(Nc2cnn(C3CCOCC3C)c2C)nc2[nH]ccc12", "note": "(single isomer, unassigned) [Example E113, (cis)-4-ethoxy-N-(5-methyl-1-(3-methyltetrahydro-2H-pyran-4-yl)-1H-pyrazol-4-yl)-7H-pyrrolo[2,3-d]pyrimidin-2-amine]", "values": [{"measurement": "IC50", "setting": "[2]", "result": 25.1, "unit": "nM"}, {"measurement": "IC50", "setting": "[1]", "result": "≤ 100", "unit": "nM"}]}
{"molecule": "CCOc1nc(Nc2cnn(C3CN(C)CCC3(F)F)c2C)nc2[nH]ccc12", "note": "(single isomer, unassigned) [Example E121, N-(1-(4,4-difluoro-1-methylpiperidin-3-yl)-5-methyl-1H-pyrazol-4-yl)-4-ethoxy-7H-pyrrolo[2,3-d]pyrimidin-2-amine]", "values": [{"measurement": "IC50", "setting": "[2]", "result": 0.631, "unit": "nM"}, {"measurement": "IC50", "setting": "[1]", "result": "≤ 100", "unit": "nM"}]}
{"molecule": "CCOc1nc(Nc2cnn(C3CN(C4COC4)CCC3(F)F)c2Cl)nc2[nH]ccc12", "note": "(single isomer, unassigned) [Example E124, N-(5-chloro-1-(4,4-difluoro-1-(oxetan-3-yl)piperidin-3-yl)-1H-pyrazol-4-yl)-4-ethoxy-7H-pyrrolo[2,3-d]pyrimidin-2-amine]", "values": [{"measurement": "IC50", "setting": "[2]", "result": 0.794, "unit": "nM"}]}
{"molecule": "CCOc1nc(Nc2cnn(C3CCN(C4COC4)CC3(F)F)c2Cl)nc2[nH]ccc12", "note": "(single isomer, unassigned) [Example E134, N-(5-chloro-1-(3,3-difluoro-1-(oxetan-3-yl)piperidin-4-yl)-1H-pyrazol-4-yl)-4-ethoxy-7H-pyrrolo[2,3-d]pyrimidin-2-amine]", "values": [{"measurement": "IC50", "setting": "[2]", "result": 5.01, "unit": "nM"}]}
{"molecule": "CCOc1nc(Nc2cnn(C3CN(C4COC4)CCO3)c2Cl)nc2[nH]ccc12", "note": "(single isomer, unassigned) [Example E141, N-(5-chloro-1-(4-(oxetan-3-yl)morpholin-2-yl)-1H-pyrazol-4-yl)-4-ethoxy-7H-pyrrolo[2,3-d]pyrimidin-2-amine]", "values": [{"measurement": "IC50", "setting": "[2]", "result": 15.8, "unit": "nM"}, {"measurement": "IC50", "setting": "[1]", "result": "≤ 100", "unit": "nM"}]}
{"molecule": "CCOc1nc(Nc2cnn(CC(C)(C)O)c2C)nc2[nH]ccc12", "note": "[Example E3, 1-(4-((4-ethoxy-7H-pyrrolo-[2,3-d]pyrimidin-2-yl)amino)-5-methyl-1H-pyrazol-1-yl)-2-methylpropan-2-ol]", "values": [{"measurement": "IC50", "setting": "[2]", "result": 79.4, "unit": "nM"}, {"measurement": "IC50", "setting": "[1]", "result": "≤ 100", "unit": "nM"}]}
{"molecule": "CCOc1nc(Nc2cnn(CCOC)c2Cl)nc2[nH]ccc12", "note": "[Example E21, N-(5-chloro-1-(2-methoxyethyl)-1H-pyrazol-4-yl)-4-ethoxy-7H-pyrrolo-[2,3-d]-pyrimidin-2-amine]", "values": [{"measurement": "IC50", "setting": "[1]", "result": "≤ 100", "unit": "nM"}]}
{"molecule": "CCOc1nc(Nc2cnn(C3CCOCC3)c2C2CC2)nc2[nH]ccc12", "note": "[Example E44, N-(5-cyclopropyl-1-(tetrahydro-2H-pyran-4-yl)-1H-pyrazol-4-yl)-4-ethoxy-7H-pyrrolo-[2,3-d]pyrimidin-2-amine]", "values": [{"measurement": "IC50", "setting": "[2]", "result": 63.1, "unit": "nM"}, {"measurement": "IC50", "setting": "[1]", "result": "≤ 100", "unit": "nM"}]}
{"molecule": "CCOc1nc(Nc2cnn(CCN3CCOCC3)c2C)nc2[nH]ccc12", "note": "[Example E45, 4-ethoxy-N-(5-methyl-1-(2-morpholinoethyl)-1H-pyrazol-4-yl)-7H-pyrrolo-[2,3-d]pyrimidin-2-amine]", "values": [{"measurement": "IC50", "setting": "[2]", "result": 20, "unit": "nM"}, {"measurement": "IC50", "setting": "[1]", "result": "≤ 100", "unit": "nM"}]}
{"molecule": "CCOc1nc(Nc2cnn(C3CC(O)C3)c2C)nc2[nH]ccc12", "note": "(stereo not shown) [Example E52, 3-(4-((4-ethoxy-7H-pyrrolo-[2,3-d]-pyrimidin-2-yl)-amino)-5-methyl-1H-pyrazol-1-yl)cyclo-butanol]", "values": [{"measurement": "IC50", "setting": "[2]", "result": 12.6, "unit": "nM"}, {"measurement": "IC50", "setting": "[1]", "result": "≤ 100", "unit": "nM"}]}
{"molecule": "CCOc1nc(Nc2cnn(C3CC(N4CCOCC4)C3)c2C)nc2[nH]ccc12", "note": "(stereo not shown) [Example E86, 4-ethoxy-N-(5-methyl-1-(3-morpholinocyclobutyl)-1H-pyrazol-4-yl)-7H-pyrrolo[2,3-d] pyrimidin-2-amine]", "values": [{"measurement": "IC50", "setting": "[2]", "result": 39.8, "unit": "nM"}, {"measurement": "IC50", "setting": "[1]", "result": "≤ 100", "unit": "nM"}]}
{"molecule": "CCOc1nc(Nc2cnn(CCN3CCO[C@H](C(F)F)C3)c2C)nc2[nH]ccc12", "note": "[Example E100, (S)—N-(1-(2-(2-(difluoromethyl)morpholino)ethyl)-5-methyl-1H-pyrazol-4-yl)-4-ethoxy-7H-pyrrolo[2,3-d]pyrimidin-2-amine]", "values": [{"measurement": "IC50", "setting": "[2]", "result": 31.6, "unit": "nM"}, {"measurement": "IC50", "setting": "[1]", "result": "≤ 100", "unit": "nM"}]}
{"molecule": "cis-3-(4-((4-ethoxy-7H-pyrrolo[2,3-d]pyrimidin-2-yl)amino)-5-methyl-1H-pyrazol-1-yl)cyclopentanol [Example E56]", "values": [{"measurement": "recombinant cellcular LRRK2 alphaScreen assay (pIC50)", "setting": "[3]", "result": 7.8}]}
{"molecule": "trans-2-(4-((4-ethoxy-7H-pyrrolo-[2,3-d]pyrimidin-2-yl)amino)-5-methyl-1H-pyrazol-1-yl)-cyclopentanol [Example E40]", "values": [{"measurement": "recombinant cellcular LRRK2 alphaScreen assay (pIC50)", "setting": "[3]", "result": 7.8}]}
{"molecule": "trans-2-(4-((4-ethoxy-7H-pyrrolo-[2,3-d]pyrimidin-2-yl)amino)-5-methyl-1H-pyrazol-1-yl)-cyclopentanol [Example E41]", "values": [{"measurement": "recombinant cellcular LRRK2 alphaScreen assay (pIC50)", "setting": "[3]", "result": 7.8}]}
{"molecule": "trans-2-(5-chloro-4-((4-ethoxy-7H-pyrrolo-[2,3-d]-pyrimidin-2-yl)amino)-1H-pyrazol-1-yl)-cyclopentanol [Example E37]", "values": [{"measurement": "recombinant cellcular LRRK2 alphaScreen assay (pIC50)", "setting": "[3]", "result": 7.6}]}
{"molecule": "trans-2-(5-chloro-4-((4-ethoxy-7H-pyrrolo-[2,3-d]-pyrimidin-2-yl)amino)-1H-pyrazol-1-yl)cyclopentanol [Example E38]", "values": [{"measurement": "recombinant cellcular LRRK2 alphaScreen assay (pIC50)", "setting": "[3]", "result": 7.6}]}
